For orientation: pIC50 means the IC50 on a negative log10 scale, so that one unit is a factor of ten. Low values mean a large IC50, high ones a small IC50.

pIC50: −log10 of the molar value.

The target of this assay is Angiotensin-converting enzyme (Homo sapiens, UniProt P12821). In words: Inhibition of ACE by fluorometric assay.
Sequence of Angiotensin-converting enzyme (P12821 whole entry): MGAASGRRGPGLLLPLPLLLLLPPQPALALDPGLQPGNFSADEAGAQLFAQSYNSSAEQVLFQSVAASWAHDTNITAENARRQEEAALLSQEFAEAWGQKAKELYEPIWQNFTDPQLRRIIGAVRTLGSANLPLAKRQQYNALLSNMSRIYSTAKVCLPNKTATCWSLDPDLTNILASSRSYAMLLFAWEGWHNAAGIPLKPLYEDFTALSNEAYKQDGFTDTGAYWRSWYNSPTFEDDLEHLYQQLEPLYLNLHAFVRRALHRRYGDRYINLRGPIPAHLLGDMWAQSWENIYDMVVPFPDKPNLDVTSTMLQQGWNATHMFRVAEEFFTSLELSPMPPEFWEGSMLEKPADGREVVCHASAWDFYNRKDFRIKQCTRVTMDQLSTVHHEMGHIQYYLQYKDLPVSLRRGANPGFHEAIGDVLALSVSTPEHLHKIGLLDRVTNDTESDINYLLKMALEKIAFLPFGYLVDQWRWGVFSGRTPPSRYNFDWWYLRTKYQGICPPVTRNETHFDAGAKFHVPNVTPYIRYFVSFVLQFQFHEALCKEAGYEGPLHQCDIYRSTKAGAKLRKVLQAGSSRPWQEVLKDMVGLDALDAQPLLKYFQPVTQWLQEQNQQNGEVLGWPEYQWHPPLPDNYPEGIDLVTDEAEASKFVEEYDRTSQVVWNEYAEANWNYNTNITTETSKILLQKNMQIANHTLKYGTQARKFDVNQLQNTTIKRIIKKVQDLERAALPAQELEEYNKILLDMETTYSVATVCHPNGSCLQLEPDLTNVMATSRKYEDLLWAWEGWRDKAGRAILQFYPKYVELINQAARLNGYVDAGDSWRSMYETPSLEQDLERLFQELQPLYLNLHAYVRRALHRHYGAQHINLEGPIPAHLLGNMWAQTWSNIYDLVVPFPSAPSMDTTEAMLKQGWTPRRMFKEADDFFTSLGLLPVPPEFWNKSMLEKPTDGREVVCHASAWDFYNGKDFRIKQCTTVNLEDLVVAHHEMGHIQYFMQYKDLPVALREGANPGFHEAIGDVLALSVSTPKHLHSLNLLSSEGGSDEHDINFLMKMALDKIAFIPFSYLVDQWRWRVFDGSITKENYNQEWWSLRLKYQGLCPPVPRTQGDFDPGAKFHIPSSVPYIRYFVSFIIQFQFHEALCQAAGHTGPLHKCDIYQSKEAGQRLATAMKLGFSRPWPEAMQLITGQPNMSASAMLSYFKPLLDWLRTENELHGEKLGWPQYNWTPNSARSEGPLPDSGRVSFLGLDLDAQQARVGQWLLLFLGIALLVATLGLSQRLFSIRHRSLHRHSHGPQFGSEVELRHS
Compound `O=C(O[C@@H]1O[C@@H]2COC(=O)c3cc(O)c(O)c(O)c3-c3c(cc(O)c(O)c3O)C(=O)O[C@H]([C@H]1O)[C@@H]2O)c1cc(O)c(O)c(O)c1` [CORILAGIN] gave a pIC50 of 2.43. The value for `O=c1oc2c(O)c(O)cc3c(=O)oc4c(O)c(O)cc1c4c23` [ELLAGIC ACID] was 2.30; that for `O=C(O)c1cc(O)c(O)c(O)c1` [GALLIC ACID] was 2.11; that for `O=C1O[C@H]2[C@@H]3OC(=O)c4cc(O)c(O)c(O)c4-c4c(cc(O)c(O)c4O)C(=O)OC[C@H]2O[C@@H](OC(=O)c2cc(O)c(O)c(O)c2)[C@@H]3OC(=O)c2cc(O)c(O)c3c2[C@@H]2C1=CC(=O)[C@](O)(O3)C2(O)O` [GERANIIN] was 3.40.

Values taken from ChEMBL document CHEMBL1150754, “Chemical and pharmaceutical studies on medicinal plants in Paraguay. Geraniin, an angiotensin-converting enzyme inhibitor from "paraparai mi," Phyllanthus niruri” (J Nat Prod, 1988).
